For 5 compounds, Vm results are on record in ChEMBL document CHEMBL1136204, “Thymidine and thymidine-5'-O-monophosphate analogues as inhibitors of Mycobacterium tuberculosis thymidylate kinase” (Bioorg Med Chem Lett, 2003).

The target of experiment [1] is T1, Thymidylate kinase (Mycobacterium tuberculosis) (UniProt P9WKE1).
T1 sequence (whole entry): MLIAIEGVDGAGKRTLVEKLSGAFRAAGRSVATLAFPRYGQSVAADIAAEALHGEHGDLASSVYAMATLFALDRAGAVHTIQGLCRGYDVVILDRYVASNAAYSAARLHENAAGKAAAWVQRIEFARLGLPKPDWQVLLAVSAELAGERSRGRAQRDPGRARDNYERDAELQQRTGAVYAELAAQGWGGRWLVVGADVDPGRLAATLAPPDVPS
The experiment is described as follows: (§1) Kinetic parameter Vm of thymidine monophosphate kinase (TMPKmt) in Mycobacterium tuberculosis was determined. Type of experiment: functional.

For experiment [2], the target named is T1, Thymidylate kinase (Mycobacterium tuberculosis). Described as §1.

In the case of `O=c1[nH]c(=O)n([C@H]2C[C@H](O)[C@@H](COP(=O)(O)O)O2)cc1I`, the Vm in experiment [1] stood at 7.5 µM/min/mg.

On to `Cc1cn([C@H]2C[C@H](O)[C@@H](COP(=O)(O)O)O2)c(=O)[nH]c1=O`, for which, in experiment [2], the Vm came out at 10.6 µM/min/mg.

Consider `O=c1[nH]c(=O)n([C@H]2C[C@H](O)[C@@H](COP(=O)(O)O)O2)cc1Br`, for which the Vm in experiment [1] is 9.8 µM/min/mg.

`O=c1[nH]c(=O)n([C@H]2C[C@H](O)[C@@H](COP(=O)(O)O)O2)cc1F` yielded a Vm in experiment [1] of 4.7 µM/min/mg.

On to `O=c1ccn([C@H]2C[C@H](O)[C@@H](COP(=O)(O)O)O2)c(=O)[nH]1`, for which the Vm in experiment [1] turned out to be 3.5 µM/min/mg.
